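In this assay, cells in 96-well plates receive the compound at five concentrations for 48 hours. Endpoints are linearly interpolated between the surrounding concentrations. The concentration for 50% growth inhibition is given as GI50. TGI: concentration producing complete growth inhibition.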
Tests used:
Test in all cases: NCI-60 cell line screen, 48 h
MCF7 breast = system: MCF7 breast
COLO 205 colon = system: COLO 205 colon
K-562 leukemia = system: K-562 leukemia
UACC-257 melanoma = system: UACC-257 melanoma
KM12 colon = system: KM12 colon
NCI-H226 lung = system: NCI-H226 lung
MDA-MB-435 = system: MDA-MB-435
TK-10 renal = system: TK-10 renal
OVCAR-5 ovarian = system: OVCAR-5 ovarian
OVCAR-3 ovarian = system: OVCAR-3 ovarian
HT29 colon = system: HT29 colon
SF-268 CNS = system: SF-268 CNS
ACHN renal = system: ACHN renal
IGROV1 ovarian = system: IGROV1 ovarian
SK-MEL-2 melanoma = system: SK-MEL-2 melanoma
SF-539 CNS = system: SF-539 CNS
NCI-H460 lung = system: NCI-H460 lung
UACC-62 melanoma = system: UACC-62 melanoma
HOP-92 NSCLC = system: HOP-92 NSCLC
SW-620 colon = system: SW-620 colon
UO-31 renal = system: UO-31 renal
LOX IMVI melanoma = system: LOX IMVI melanoma
NCI-H522 lung = system: NCI-H522 lung
BT-549 breast = system: BT-549 breast
HL-60(TB) leukemia = system: HL-60(TB) leukemia
SF-295 CNS = system: SF-295 CNS
HCC-2998 colon = system: HCC-2998 colon
MDA-MB-231 breast = system: MDA-MB-231 breast
HS 578T breast = system: HS 578T breast
MOLT-4 leukemia = system: MOLT-4 leukemia
PC-3 prostate = system: PC-3 prostate
SK-MEL-28 melanoma = system: SK-MEL-28 melanoma
SN12C renal = system: SN12C renal
SNB-19 CNS = system: SNB-19 CNS
HCT-15 colon = system: HCT-15 colon
786-0 renal = system: 786-0 renal
OVCAR-8 ovarian = system: OVCAR-8 ovarian
OVCAR-4 ovarian = system: OVCAR-4 ovarian
SK-OV-3 ovarian = system: SK-OV-3 ovarian
NCI-H23 lung = system: NCI-H23 lung
T-47D breast = system: T-47D breast
U251 CNS = system: U251 CNS
A498 renal = system: A498 renal
M14 melanoma = system: M14 melanoma
CAKI-1 renal = system: CAKI-1 renal
SNB-75 CNS = system: SNB-75 CNS
RPMI-8226 leukemia = system: RPMI-8226 leukemia
A549 NSCLC = system: A549 NSCLC
HCT-116 colon = system: HCT-116 colon
DU-145 prostate = system: DU-145 prostate
CCRF-CEM leukemia = system: CCRF-CEM leukemia
SR leukemia = system: SR leukemia
SK-MEL-5 melanoma = system: SK-MEL-5 melanoma
NCI/ADR-RES ovarian = system: NCI/ADR-RES ovarian
HOP-62 NSCLC = system: HOP-62 NSCLC
MALME-3M melanoma = system: MALME-3M melanoma
EKVX NSCLC = system: EKVX NSCLC
RXF 393 renal = system: RXF 393 renal

## CO[C@H]1/C=C/O[C@@]2(C)Oc3c(C)c(O)c4c(c3C2=O)C(=O)C(/C=N/N(c2ccccc2)c2ccccc2)=C(NC(=O)/C(C)=C\C=C\[C@H](C)[C@H](O)[C@@H](C)[C@@H](O)[C@@H](C)[C@H](OC(C)=O)[C@@H]1C)C4=O
MCF7 breast
  GI50: 1.95 µM
  TGI: 4.23 µM
COLO 205 colon
  GI50: 1.75 µM
  TGI: 3.46 µM
K-562 leukemia
  GI50: 2.69 µM
  TGI: 9.36 µM
UACC-257 melanoma
  GI50: 1.84 µM
  TGI: 3.9 µM
KM12 colon
  GI50: 1.75 µM
  TGI: 3.24 µM
NCI-H226 lung
  GI50: 1.97 µM
  TGI: 3.98 µM
MDA-MB-435
  GI50: 1.68 µM
  TGI: 3.09 µM
TK-10 renal
  GI50: 1.87 µM
  TGI: 3.55 µM
OVCAR-5 ovarian
  GI50: 1.83 µM
  TGI: 3.72 µM
OVCAR-3 ovarian
  GI50: 1.84 µM
  TGI: 3.34 µM
HT29 colon
  GI50: 1.93 µM
  TGI: 3.84 µM
SF-268 CNS
  GI50: 1.79 µM
  TGI: 3.37 µM
ACHN renal
  GI50: 1.74 µM
  TGI: 3.28 µM
IGROV1 ovarian
  GI50: 2.13 µM
  TGI: 4.23 µM
SK-MEL-2 melanoma
  GI50: 1.86 µM
  TGI: 3.6 µM
SF-539 CNS
  GI50: 1.8 µM
  TGI: 3.56 µM
NCI-H460 lung
  GI50: 1.77 µM
  TGI: 3.44 µM
UACC-62 melanoma
  GI50: 1.51 µM
  TGI: 2.92 µM
HOP-92 NSCLC
  GI50: 1.88 µM
  TGI: 3.52 µM
SW-620 colon
  GI50: 1.83 µM
  TGI: 3.61 µM
UO-31 renal
  GI50: 1.65 µM
  TGI: 3.21 µM
LOX IMVI melanoma
  GI50: 1.95 µM
  TGI: 3.79 µM
NCI-H522 lung
  GI50: 1.72 µM
  TGI: 3.42 µM
BT-549 breast
  GI50: 1.61 µM
  TGI: 3.06 µM
HL-60(TB) leukemia
  GI50: 2.17 µM
  TGI: 4.7 µM
SF-295 CNS
  GI50: 1.59 µM
  TGI: 3 µM
HCC-2998 colon
  GI50: 2.07 µM
  TGI: 4.08 µM
MDA-MB-231 breast
  GI50: 1.7 µM
  TGI: 3.35 µM
HS 578T breast
  GI50: 2.04 µM
  TGI: 5.39 µM
MOLT-4 leukemia
  GI50: 1.85 µM
  TGI: 6.07 µM
PC-3 prostate
  GI50: 1.32 µM
  TGI: 2.82 µM
SK-MEL-28 melanoma
  GI50: 1.71 µM
  TGI: 3.36 µM
SN12C renal
  GI50: 1.82 µM
  TGI: 3.33 µM
SNB-19 CNS
  GI50: 1.71 µM
  TGI: 3.27 µM
HCT-15 colon
  GI50: 1.63 µM
  TGI: 3.4 µM
786-0 renal
  GI50: 1.83 µM
  TGI: 3.44 µM
OVCAR-8 ovarian
  GI50: 1.99 µM
  TGI: 4.21 µM
OVCAR-4 ovarian
  GI50: 1.65 µM
  TGI: 3.15 µM
SK-OV-3 ovarian
  GI50: 1.81 µM
  TGI: 3.28 µM
NCI-H23 lung
  GI50: 2.44 µM
  TGI: 5.1 µM
T-47D breast
  GI50: 1.84 µM
  TGI: 3.85 µM
U251 CNS
  GI50: 1.86 µM
  TGI: 3.4 µM
A498 renal
  GI50: 1.43 µM
  TGI: 2.84 µM
M14 melanoma
  GI50: 1.79 µM
  TGI: 3.49 µM
CAKI-1 renal
  GI50: 1.72 µM
  TGI: 3.38 µM
SNB-75 CNS
  GI50: 1.38 µM
  TGI: 2.72 µM
RPMI-8226 leukemia
  GI50: 1.43 µM
  TGI: 4.31 µM
A549 NSCLC
  GI50: 1.69 µM
  TGI: 3.29 µM
HCT-116 colon
  GI50: 1.47 µM
  TGI: 2.96 µM
DU-145 prostate
  GI50: 1.93 µM
  TGI: 3.51 µM
CCRF-CEM leukemia
  GI50: 1.83 µM
  TGI: 4.84 µM
SR leukemia
  GI50: 2.43 µM
  TGI: 5.77 µM
SK-MEL-5 melanoma
  GI50: 1.64 µM
  TGI: 3.02 µM
NCI/ADR-RES ovarian
  GI50: 2.4 µM
  TGI: 5.31 µM
HOP-62 NSCLC
  GI50: 1.71 µM
  TGI: 3.17 µM
MALME-3M melanoma
  GI50: 1.89 µM
  TGI: 3.59 µM

## CN(C)CCCNC(=O)c1cc(NC(=O)c2cc(NC(=O)CCc3c[nH]c4ccccc34)cn2C)cn1C
MCF7 breast
  GI50: > 100 µM
  TGI: > 100 µM
EKVX NSCLC
  GI50: > 100 µM
  TGI: > 100 µM
COLO 205 colon
  GI50: > 100 µM
  TGI: > 100 µM
K-562 leukemia
  GI50: > 100 µM
  TGI: > 100 µM
UACC-257 melanoma
  GI50: > 100 µM
  TGI: > 100 µM
KM12 colon
  GI50: > 100 µM
  TGI: > 100 µM
NCI-H226 lung
  GI50: > 100 µM
  TGI: > 100 µM
MDA-MB-435
  GI50: > 100 µM
  TGI: > 100 µM
TK-10 renal
  GI50: > 100 µM
  TGI: > 100 µM
OVCAR-5 ovarian
  GI50: > 100 µM
  TGI: > 100 µM
OVCAR-3 ovarian
  GI50: > 100 µM
  TGI: > 100 µM
HT29 colon
  GI50: > 100 µM
  TGI: > 100 µM
SF-268 CNS
  GI50: > 100 µM
  TGI: > 100 µM
ACHN renal
  GI50: > 100 µM
  TGI: > 100 µM
IGROV1 ovarian
  GI50: > 100 µM
  TGI: > 100 µM
SK-MEL-2 melanoma
  GI50: > 100 µM
  TGI: > 100 µM
SF-539 CNS
  GI50: > 100 µM
  TGI: > 100 µM
NCI-H460 lung
  GI50: > 100 µM
  TGI: > 100 µM
UACC-62 melanoma
  GI50: > 100 µM
  TGI: > 100 µM
HOP-92 NSCLC
  GI50: 72.8 µM
  TGI: > 100 µM
SW-620 colon
  GI50: > 100 µM
  TGI: > 100 µM
UO-31 renal
  GI50: > 100 µM
  TGI: > 100 µM
LOX IMVI melanoma
  GI50: > 100 µM
  TGI: > 100 µM
NCI-H522 lung
  GI50: > 100 µM
  TGI: > 100 µM
BT-549 breast
  GI50: > 100 µM
  TGI: > 100 µM
HL-60(TB) leukemia
  GI50: > 100 µM
  TGI: > 100 µM
SF-295 CNS
  GI50: > 100 µM
  TGI: > 100 µM
MDA-MB-231 breast
  GI50: > 100 µM
  TGI: > 100 µM
HS 578T breast
  GI50: > 100 µM
  TGI: > 100 µM
MOLT-4 leukemia
  GI50: > 100 µM
  TGI: > 100 µM
PC-3 prostate
  GI50: > 100 µM
  TGI: > 100 µM
SK-MEL-28 melanoma
  GI50: > 100 µM
  TGI: > 100 µM
SN12C renal
  GI50: > 100 µM
  TGI: > 100 µM
SNB-19 CNS
  GI50: > 100 µM
  TGI: > 100 µM
HCT-15 colon
  GI50: > 100 µM
  TGI: > 100 µM
786-0 renal
  GI50: > 100 µM
  TGI: > 100 µM
OVCAR-8 ovarian
  GI50: > 100 µM
  TGI: > 100 µM
OVCAR-4 ovarian
  GI50: > 100 µM
  TGI: > 100 µM
SK-OV-3 ovarian
  GI50: > 100 µM
  TGI: > 100 µM
NCI-H23 lung
  GI50: > 100 µM
  TGI: > 100 µM
T-47D breast
  GI50: > 100 µM
  TGI: > 100 µM
U251 CNS
  GI50: > 100 µM
  TGI: > 100 µM
A498 renal
  GI50: > 100 µM
  TGI: > 100 µM
M14 melanoma
  GI50: > 100 µM
  TGI: > 100 µM
SNB-75 CNS
  GI50: > 100 µM
  TGI: > 100 µM
RXF 393 renal
  GI50: > 100 µM
  TGI: > 100 µM
RPMI-8226 leukemia
  GI50: > 100 µM
  TGI: > 100 µM
A549 NSCLC
  GI50: > 100 µM
  TGI: > 100 µM
DU-145 prostate
  GI50: > 100 µM
  TGI: > 100 µM
CCRF-CEM leukemia
  GI50: > 100 µM
  TGI: > 100 µM
SK-MEL-5 melanoma
  GI50: > 100 µM
  TGI: > 100 µM
NCI/ADR-RES ovarian
  GI50: > 100 µM
  TGI: > 100 µM
MALME-3M melanoma
  GI50: > 100 µM
  TGI: > 100 µM

Source: PubChem BioAssay (NCI)
